According to US20250170115A1, “LENALIDOMIDE ORAL SOLUTION” (A FINE HOUSE S.A., priority 2021, published 2025):

Assay: Precipitation after preparation of lenalidomide compositions without glycol or polyol
Type: physicochemical
Settings: lenalidomide dissolved in an aqueous buffer at pH between 1.0 and 3.5; a few minutes
Protocol: A composition was prepared according to example 23 of WO 1998/03502. The solution contained 5.0 g lenalidomide, 22.5 g sodium chloride, 300.0 g phosphate buffer with pH 7.4 and demineralized water. The pH of the final composition was 7.4.
Similar results (i.e. precipitation) were obtained a few minutes after lenalidomide was dissolved in an aqueous buffer at pH between 1.0 and 3.5.
Likewise, attempts to prepare an oral solution by combining lenalidomide with any one of arginine, leucine, povidone K25, sodium lauryl sulfate, hydroxypropyl methylcellulose, poloxamer 20, in an aqueous buffer at pH 2.0 or pH 2.5 led to the formation of precipitate within minutes of the preparation of the compositions.

precipitation after dissolution: precipitation
Structure (SMILES): Nc1cccc2c1CN(C1CCC(=O)NC1=O)C2=O (racemic) [Lenalidomide, 1-oxo-(2,6-dioxopiperidin-3-yl)-4-aminoisoindoline]
